# Measured values published in US20220339143A1, “TAK-925 FOR USE IN TREATING NARCOLEPSY” (Takeda Pharmaceutical Company Limited, priority 2019, published 2022).
# Test system: patients with narcolepsy type 1 (NT1)
# Assay: Subjective daytime sleepiness as assessed by Karolinska Sleepiness Scale (KSS), single dose (Cohorts 5, 6, 7)
# Type: in vivo, human
# Description: Daytime sleepiness as assessed by the Karolinska Sleepiness Scale (KSS).
# Daytime sleepiness as assessed by KSS at predose and hourly until 11 hours after the start of infusion is presented in Table 13 as summary, in Table 14 as ANOVA and in Table 15 as ANOVA of change from baseline.
# [1] = Cmpd A 5 mg (N = 6), 9 hr after start of infusion
# [2] = Cmpd A 5 mg (N = 6), 10 hr after start of infusion
# [3] = Cmpd A 5 mg (N = 6), 11 hr after start of infusion
# [4] = Cmpd A 11.2 mg (N = 4), 1 hr after start of infusion
# [5] = Cmpd A 11.2 mg (N = 4), 2 hr after start of infusion
# [6] = Cmpd A 11.2 mg (N = 4), 3 hr after start of infusion
# [7] = Cmpd A 11.2 mg (N = 4), 4 hr after start of infusion
# [8] = Cmpd A 11.2 mg (N = 4), 5 hr after start of infusion
# [9] = Cmpd A 11.2 mg (N = 4), 6 hr after start of infusion
# [10] = Cmpd A 11.2 mg (N = 4), 7 hr after start of infusion
# [11] = Cmpd A 11.2 mg (N = 4), 8 hr after start of infusion
# [12] = Cmpd A 11.2 mg (N = 4), 9 hr after start of infusion
# [13] = Cmpd A 11.2 mg (N = 4), 10 hr after start of infusion
# [14] = Cmpd A 11.2 mg (N = 4), 11 hr after start of infusion
# [15] = Cmpd A 44.8 mg (N = 4), 1 hr after start of infusion
# [16] = Cmpd A 44.8 mg (N = 4), 2 hr after start of infusion
# [17] = Cmpd A 44.8 mg (N = 4), 3 hr after start of infusion
# [18] = Cmpd A 44.8 mg (N = 4), 4 hr after start of infusion
# [19] = Cmpd A 44.8 mg (N = 4), 5 hr after start of infusion
# [20] = Cmpd A 44.8 mg (N = 4), 6 hr after start of infusion
# [21] = Cmpd A 44.8 mg (N = 4), 7 hr after start of infusion
# [22] = Cmpd A 44.8 mg (N = 4), 8 hr after start of infusion
# [23] = Cmpd A 44.8 mg (N = 4), 9 hr after start of infusion
# [24] = Cmpd A 44.8 mg (N = 4), 10 hr after start of infusion
# [25] = Cmpd A 44.8 mg (N = 4), 11 hr after start of infusion
structure (smiles),measurement,setting,value
"COC(=O)N1CCC[C@H](NS(C)(=O)=O)[C@@H]1CO[C@H]1CC[C@@H](c2ccccc2)CC1 [Compound A, methyl (2R,3S)-3-((methylsulfonyl)amino)-2-(((cis-4-phenylcyclohexyl)oxy)methyl)piperidine-1-carboxylate]","KSS Observed Value at Visit, Median","Cmpd A 5 mg (N = 6), 8 hr after start of infusion",3.0
same,"KSS Change from Baseline, Mean",[1],−2.5
same,"KSS Change from Baseline, Median",[1],−2.5
same,"KSS Observed Value at Visit, Mean",[1],2.5
same,"KSS Observed Value at Visit, Median",[1],2.5
same,"KSS Change from Baseline, Mean",[2],−2.3
same,"KSS Change from Baseline, Median",[2],−2.5
same,"KSS Observed Value at Visit, Mean",[2],2.7
same,"KSS Observed Value at Visit, Median",[2],2.0
same,"KSS Change from Baseline, Mean",[3],−1.7
same,"KSS Change from Baseline, Median",[3],−1.5
same,"KSS Observed Value at Visit, Mean",[3],3.3
same,"KSS Observed Value at Visit, Median",[3],3.0
same,"KSS Change from Baseline, Mean",[4],−2.0
same,"KSS Change from Baseline, Median",[4],−1.0
same,"KSS Observed Value at Visit, Mean",[4],1.8
same,"KSS Observed Value at Visit, Median",[4],1.5
same,"KSS Change from Baseline, Mean",[5],−1.5
same,"KSS Change from Baseline, Median",[5],−1.0
same,"KSS Observed Value at Visit, Mean",[5],2.3
same,"KSS Observed Value at Visit, Median",[5],2.0
same,"KSS Change from Baseline, Mean",[6],−1.3
same,"KSS Change from Baseline, Median",[6],−1.0
same,"KSS Observed Value at Visit, Mean",[6],2.5
same,"KSS Observed Value at Visit, Median",[6],3.0
same,"KSS Change from Baseline, Mean",[7],−1.8
same,"KSS Change from Baseline, Median",[7],−1.0
same,"KSS Observed Value at Visit, Mean",[7],2.0
same,"KSS Observed Value at Visit, Median",[7],2.0
same,"KSS Change from Baseline, Mean",[8],−1.8
same,"KSS Change from Baseline, Median",[8],−1.0
same,"KSS Observed Value at Visit, Mean",[8],2.0
same,"KSS Observed Value at Visit, Median",[8],2.0
same,"KSS Change from Baseline, Mean",[9],−1.5
same,"KSS Change from Baseline, Median",[9],−0.5
same,"KSS Observed Value at Visit, Mean",[9],2.3
same,"KSS Observed Value at Visit, Median",[9],2.0
same,"KSS Change from Baseline, Mean",[10],−1.0
same,"KSS Change from Baseline, Median",[10],−0.5
same,"KSS Observed Value at Visit, Mean",[10],2.8
same,"KSS Observed Value at Visit, Median",[10],3.0
same,"KSS Change from Baseline, Mean",[11],−1.5
same,"KSS Change from Baseline, Median",[11],−1.0
same,"KSS Observed Value at Visit, Mean",[11],2.3
same,"KSS Observed Value at Visit, Median",[11],2.5
same,"KSS Change from Baseline, Mean",[12],−1.3
same,"KSS Change from Baseline, Median",[12],−0.5
same,"KSS Observed Value at Visit, Mean",[12],2.5
same,"KSS Observed Value at Visit, Median",[12],2.5
same,"KSS Change from Baseline, Mean",[13],1.3
same,"KSS Change from Baseline, Median",[13],2.5
same,"KSS Observed Value at Visit, Mean",[13],5.0
same,"KSS Observed Value at Visit, Median",[13],5.5
same,"KSS Change from Baseline, Mean",[14],0.5
same,"KSS Change from Baseline, Median",[14],1.0
same,"KSS Observed Value at Visit, Mean",[14],4.3
same,"KSS Observed Value at Visit, Median",[14],4.0
same,"KSS Change from Baseline, Mean",[15],−1.5
same,"KSS Change from Baseline, Median",[15],−1.5
same,"KSS Observed Value at Visit, Mean",[15],1.3
same,"KSS Observed Value at Visit, Median",[15],1.0
same,"KSS Change from Baseline, Mean",[16],−1.5
same,"KSS Change from Baseline, Median",[16],−2.0
same,"KSS Observed Value at Visit, Mean",[16],1.3
same,"KSS Observed Value at Visit, Median",[16],1.0
same,"KSS Change from Baseline, Mean",[17],−1.0
same,"KSS Change from Baseline, Median",[17],−1.0
same,"KSS Observed Value at Visit, Mean",[17],1.8
same,"KSS Observed Value at Visit, Median",[17],1.5
same,"KSS Change from Baseline, Mean",[18],−1.0
same,"KSS Change from Baseline, Median",[18],−1.0
same,"KSS Observed Value at Visit, Mean",[18],1.8
same,"KSS Observed Value at Visit, Median",[18],1.5
same,"KSS Change from Baseline, Mean",[19],−1.5
same,"KSS Change from Baseline, Median",[19],−1.5
same,"KSS Observed Value at Visit, Mean",[19],1.3
same,"KSS Observed Value at Visit, Median",[19],1.0
same,"KSS Change from Baseline, Mean",[20],−1.3
same,"KSS Change from Baseline, Median",[20],−1.0
same,"KSS Observed Value at Visit, Mean",[20],1.5
same,"KSS Observed Value at Visit, Median",[20],1.5
same,"KSS Change from Baseline, Mean",[21],−1.3
same,"KSS Change from Baseline, Median",[21],−1.0
same,"KSS Observed Value at Visit, Mean",[21],1.5
same,"KSS Observed Value at Visit, Median",[21],1.5
same,"KSS Change from Baseline, Mean",[22],−0.8
same,"KSS Change from Baseline, Median",[22],−1.0
same,"KSS Observed Value at Visit, Mean",[22],2.0
same,"KSS Observed Value at Visit, Median",[22],2.0
same,"KSS Change from Baseline, Mean",[23],−1.3
same,"KSS Change from Baseline, Median",[23],−1.0
same,"KSS Observed Value at Visit, Mean",[23],1.5
same,"KSS Observed Value at Visit, Median",[23],1.0
same,"KSS Change from Baseline, Mean",[24],−1.5
same,"KSS Change from Baseline, Median",[24],−1.5
same,"KSS Observed Value at Visit, Mean",[24],1.3
same,"KSS Observed Value at Visit, Median",[24],1.0
same,"KSS Change from Baseline, Mean",[25],−1.3
same,"KSS Change from Baseline, Median",[25],−1.0
same,"KSS Observed Value at Visit, Mean",[25],1.5
same,"KSS Observed Value at Visit, Median",[25],1.5
same,KSS ratings vs pooled placebo group,all time points over 9 hour infusion period,lower (greater alertness)
same,mean reduction in KSS from baseline vs placebo,"single dose, NT1",greater for Compound A vs placebo
